According to patent publication US20140275257A1, “N-ACETYL CYSTEINE COMPOSITIONS IN THE TREATMENT OF SYSTEMIC LUPUS ERYTHEMATOSUS” (Foundation for the State University of New York, priority 2013, published 2014):

How the values were obtained:
[1] = molecular target: mTOR (Homo sapiens, UniProt P42345); settings: O'Loghlen et al. (2006); cited from earlier work
[2] = system: anti-double-stranded DNA, C3, and C4; test: Lupus-relevant laboratory tests (anti-double-stranded DNA, C3, C4); format: in vivo, human
Description: Routine blood tests included complete blood count, liver and kidney function test, urinalysis and lupus-relevant laboratory tests, such as anti-double-stranded DNA, C3, and C4.

[3] = system: idiopathic pulmonary fibrosis patients; settings: "high-dose" oral NAC (1.8 g/day); Demedts et al. (2005); cited from earlier work
[4] = system: DN T cells; test: T-cell subset analysis by flow cytometry (DN T cells); format: in vivo, human; settings: after 3 months; baseline 6.2±0.5%; p=0.043
Protocol: Unstimulated cells and cells stimulated with CD3/CD28 for 16 h were examined and cell death pathway selection in T cells was measured by concurrent staining with annexin V-Alexa 647 and propidium iodide (PrI) as well as cell type-specific antigens. T-cell subsets were analyzed by staining with antibodies to CD4, CD8, and CD25. B cells were identified by CD 19 staining

[5] = system: murine lupus (female NZB×NZW F1 mouse model); settings: Suwannaroj et al. (2001); cited from earlier work
[6] = system: SLE patients; test: ADHD Self-Report Scale (ASRS) in SLE patients treated with NAC; format: in vivo, human
Protocol: The clinical trial design, eligibility criteria, randomization, blinding, monitoring of safety, tolerance and efficacy on NAC in patients with SLE was as described in Example 1, approved by the Food and Drug Administration (IND No: 101,320; clinicaltrials.gov identifier: NCT00775476). As an addendum to the Example 1 study, ASRS was evaluated as an exploratory outcome in 24 SLE patients randomized to receive orally either placebo or NAC in one of two treatment arms: 1,200 mg or 2,400 mg twice daily for three months. 12 patients were enrolled per dosing group, 9 received NAC while 3 received placebo. Due to missing data, 6 patients enrolled in the placebo arm and 8 patients enrolled into each of the two NAC treatment arms could be evaluated.
The ASRS is an 18-item scale that is used to assess the current status of the 18 DSM-IV symptoms of ADHD in adults. (Kessler, R. C. et al., “The World Health Organization Adult ADHD Self-Report Scale (ASRS): a short screening scale for use in the general population,” Psychol. Med., 35(2): 245-256 (2005)). Symptoms are rated on a frequency basis: 0=never, 1=rarely, 2=sometimes, 3=often, and 4=very often. Nine items assess inattention and nine assess hyperactivity-impulsivity. The 9 inattentive symptoms are summed to create the ASRS A subscale; the 9 hyperactive-impulsive symptoms are summed to compute the ASRS B subscale. These two scales are summed to compute the total score. For all scales, higher scores indicate more symptoms. The scale has high concurrent validity with a rater-administered ADHD symptom scale. (Adler, L. A. et al., “Validity of Pilot Adult ADHD Self-Report Scale (ASRS) to Rate Adult ADHD Symptoms,” Ann Clin. Psychiatry 18(3): 145-148 (2006)). As described in Example 1, SLE disease activity was assessed by using the British Isles Lupus Assessment Group (BILAG) (Isenberg, D. A. et al., “BILAG 2004. Development and initial validation of an updated version of the British Isles Lupus Assessment Group's disease activity index for patients with systemic lupus erythematosus,” Rheumatology, 44(7): 902-906 (2005)) and Systemic Lupus Erythematosus Disease Activity Index (SLEDAI) (Hochberg, M. C., “Updating the American College of Rheumatology revised criteria for the classification of systemic lupus erythematosus,” Arth. Rheum., 40(9): 1725 (1997)). Fatigue was estimated using the Fatigue Assessment Scale (FAS) (Michielsen, H. J. et al., “Psychometric qualities of a brief self-rated fatigue measure: The Fatigue Assessment Scale,” J. Psychosom. Res., 54(4): 345-352 (2003)).
Overall clinical effectiveness of NAC relative to placebo was analyzed with multilevel modeling as implemented in the STATA routine XTMIXED (from StataCorp, College Station, Tex.), with the three nested levels being drug group, subject within drug group and study visit within subject. All models included fixed effects for drug group, study visit and the drug group by study visit interaction along with random intercepts at each design level. […] Two-tailed paired t-test was used to assess the effects of placebo and of each and all NAC doses on clinical indices recorded on visits 2-5 relative to visit 1; p<0.05 was considered significant. Patients and controls were compared with two-tailed unpaired t-test. Correlations and t-test were performed with Prism (GraphPad, San Diego, Calif.).

[7] = Noszal et al. (2000); cited from earlier work
[8] = NAC Dose 3, end of 3-month treatment

## CC(=O)N[C@@H](CS)C(=O)O [NAC, N-acetyl-L-cysteine]
[1]
  effect on mTOR in vitro: inhibits
[2]; NAC-treated patients
  C3: not affected
  C4: not affected
[2]; all NAC doses considered together, after 1 month, baseline 78.9±45.2 IU/ml, p=0.049
  Anti-DNA: 19.5±6.0 IU/ml
[3]
  disease severity in idiopathic pulmonary fibrosis: diminished disease severity
[4]
  DN T-cell frequency: 5.3±0.5%
[5]
  outcome of murine lupus in vivo: improves the outcome
[6]; NAC Dose 2 (2.4 g/day), z=−3.31, p=0.001
  cognitive/inattentive ASRS A scores: reduced
[6]; NAC Dose 2 and 3, alone or combined (data not shown)
  hyperactivity/impulsive components of ASRS scores (ASRS B scores): not affected
[6]; NAC Dose 3 (4.8 g/day), after 2 and 3 months of treatment
  ASRS Total scores: diminished
[6]; NAC Dose 3 (4.8 g/day), z=−4.04, p<0.0001
  cognitive/inattentive ASRS A scores: reduced
[6]; [8]
  standardized mean difference effect size (Cohen's D), ASRS A scores: 0.71
  standardized mean difference effect size (Cohen's D), ASRS B scores: 0.44
  standardized mean difference effect size (Cohen's D), ASRS Total scores: 0.72
[6]; NAC Doses 2 and 3 combined, after 3 months
  ASRS Total scores: reduced
[6]; NAC Doses 2 and 3 combined, XTMIXED z=−2.09, p=0.037
  reduction in ASRS Total scores relative to placebo (multilevel modeling): greater
[6]; NAC Doses 2 and 3 combined, z=−3.41, p=0.001
  cognitive/inattentive ASRS A scores: reduced
[7]
  half-cell potential, NAC thiol/disulfide pair: about +63 mV
